The target of test [1] is T1, Lysine-specific histone demethylase 1A (Homo sapiens, UniProt O60341).
Description: Inhibition of LSD1 (unknown origin) by fluorescence assay
Test [2] deals with T1, Lysine-specific histone demethylase 1A. Description: Inhibition of LSD1 (unknown origin).
Test [3] has as its system MDA-MB-231. Description: Antiproliferative activity against human MDA-MB-231 cells assessed as reduction in EdU incorporation at 8 uM after 24 hrs by Hoechst 33342 staining-based confocal laser scanning microscopic analysis. The format is functional, cell-based.
In test [4] the test system is MDA-MB-231. Put plainly: Induction of apoptosis in human MDA-MB-231 cells transfected with LSD1 siRNA assessed as increase in BAX/Bcl-2 protein ratio at 8 uM after 24 hrs by Western blot analysis. The format is functional, cell-based.
Test [5] deals with MDA-MB-231. Description: Induction of apoptosis in human MDA-MB-231 cells transfected with LSD1 siRNA assessed as early apoptosis cells level at 8 uM after 24 hrs by Annexin V-FITC/propidium iodide staining-based flow cytometric analysis relative to control. The format is functional. Background: Flow cytometry measures light scatter and fluorescence of single cells or particles in a stream.

The target in test [6] is T1, Lysine-specific histone demethylase 1A. Description: Inhibition of LSD1 in human MDA-MB-231 cells assessed as increase in H3K4me1 methylation by Western blot analysis. The format is cell-based.
The test system of test [7] is MDA-MB-231. Description: Induction of apoptosis in human MDA-MB-231 cells transfected with LSD1 siRNA assessed as increase in cleaved PARP level at 8 uM after 24 hrs by Western blot analysis. The format is functional, cell-based. (In general: A western blot detects proteins with antibodies after separation by electrophoresis.)
Test [8] concerns MDA-MB-231. Put plainly: Induction of apoptosis in human MDA-MB-231 cells assessed as late apoptosis level at 8 uM after 24 hrs by Annexin V-FITC/propidium iodide staining-based flow cytometric analysis relative to control. The format is functional.
The target of test [9] is Lysine-specific demethylase 5A (Homo sapiens) (UniProt P29375). Put plainly: Inhibition of JARID1 in human MDA-MB-231 cells assessed as effect on H3K4me3 methylation by Western blot analysis. The format is cell-based.
The test system of test [10] is MDA-MB-231. Put plainly: Antiproliferative activity against human MDA-MB-231 cells transfected with LSD1 siRNA assessed as reduction in EdU incorporation at 8 uM after 24 hrs by Hoechst 33342 staining-based confocal laser scanning microscopic analysis. The format is functional, cell-based.
The target in test [11] is T1, Lysine-specific histone demethylase 1A. Description: Inhibition of LSD1 in human MDA-MB-231 cells assessed as increase in H3K9me2 methylation by Western blot analysis. The format is cell-based.
Test [12] concerns MDA-MB-231. Put plainly: Inhibition of colony formation in human MDA-MB-231 cells transfected with LSD1 siRNA. The format is functional, cell-based.
Test [13] concerns MDA-MB-231. Put plainly: Induction of apoptosis in human MDA-MB-231 cells transfected with LSD1 siRNA assessed as increase in cleaved caspase-7 level at 8 uM after 24 hrs by Western blot analysis. The format is functional, cell-based.
The test system of test [14] is MDA-MB-231. Put plainly: Induction of apoptosis in human MDA-MB-231 cells transfected with LSD1 siRNA assessed as increase in cleaved caspase-9 level at 8 uM after 24 hrs by Western blot analysis. The format is functional, cell-based.
Test [15] concerns MDA-MB-231. Description: Induction of apoptosis in human MDA-MB-231 cells transfected with LSD1 siRNA assessed as chromatinorrhexis at 8 uM after 24 hrs by Hoechst 33342 staining-based confocal laser scanning microscopic analysis. The format is functional, cell-based.
In test [16] the test system is MDA-MB-231. Put plainly: Induction of apoptosis in human MDA-MB-231 cells transfected with LSD1 siRNA assessed as increase in cleaved caspase-3 level at 8 uM after 24 hrs by Western blot analysis. The format is functional, cell-based.
Test [17] concerns MDA-MB-231. Description: Induction of apoptosis in human MDA-MB-231 cells assessed as increase in BAX/Bcl-2 protein ratio at 8 uM after 24 hrs by Western blot analysis. The format is functional, cell-based.
For test [18], the target named is T1, Lysine-specific histone demethylase 1A. Description: Inhibition of LSD1 in human MDA-MB-231 cells assessed as increase in H3K4me2 methylation by Western blot analysis. The format is cell-based.
For test [19], the system named is MDA-MB-231. Description: Induction of apoptosis in human MDA-MB-231 cells transfected with LSD1 siRNA assessed as loss of mitochondrial membrane potential at 8 uM after 24 hrs by JC-1 staining-based flow cytometric analysis. The format is functional, cell-based.
The subject of test [20] is MDA-MB-231. Description: Induction of apoptosis in human MDA-MB-231 cells transfected with LSD1 siRNA assessed as chromatin condensation at 8 uM after 24 hrs by Hoechst 33342 staining-based confocal laser scanning microscopic analysis. The format is functional, cell-based.
The target of test [21] is T1, Lysine-specific histone demethylase 1A. Put plainly: Competitive inhibition of LSD1 (unknown origin) using H3Kme2 as substrate by Lineweaver-Burk plot analysis.
The subject of test [22] is MDA-MB-231. Description: Antiproliferative activity against human MDA-MB-231 cells transfected with NC siRNA after 24 hrs by MTT assay. The format is functional, cell-based. Background: Tetrazolium assays rely on reduction of a dye to a coloured formazan, in cell work by metabolically active cells.
For test [23], the system named is MDA-MB-231. Put plainly: Induction of apoptosis in human MDA-MB-231 cells transfected with LSD1 siRNA assessed as necrosis cells level at 8 uM after 24 hrs by Annexin V-FITC/propidium iodide staining-based flow cytometric analysis relative to control. The format is functional.
For test [24], the system named is MDA-MB-231. Description: Induction of apoptosis in human MDA-MB-231 cells assessed as loss of mitochondrial membrane potential at 8 uM after 24 hrs by JC-1 staining-based flow cytometric analysis. The format is functional, cell-based.
Test [25] has as its system MDA-MB-231. Description: Induction of apoptosis in human MDA-MB-231 cells transfected with LSD1 siRNA assessed as late apoptosis level at 8 uM after 24 hrs by Annexin V-FITC/propidium iodide staining-based flow cytometric analysis relative to control. The format is functional.
For test [26], the system named is MDA-MB-231. Description: Induction of apoptosis in human MDA-MB-231 cells transfected with LSD1 siRNA assessed as viable cells level at 8 uM after 24 hrs by Annexin V-FITC/propidium iodide staining-based flow cytometric analysis relative to control. The format is functional.
Test [27] concerns MDA-MB-231. Description: Effect on LSD1 protein levels in human MDA-MB-231 cells up to 8 uM by Western blot analysis. The format is functional, cell-based.
Test [28] deals with MDA-MB-231. Put plainly: Induction of apoptosis in human MDA-MB-231 cells assessed as viable cells level at 8 uM after 24 hrs by Annexin V-FITC/propidium iodide staining-based flow cytometric analysis relative to control. The format is functional.
Test [29] deals with MDA-MB-231. Description: Induction of apoptosis in human MDA-MB-231 cells assessed as necrosis cells level at 8 uM after 24 hrs by Annexin V-FITC/propidium iodide staining-based flow cytometric analysis relative to control. The format is functional.
The test system of test [30] is MDA-MB-231. Put plainly: Antiproliferative activity against human MDA-MB-231 cells transfected with LSD1 siRNA after 24 hrs by MTT assay. The format is functional, cell-based.
Test [31] relates to MDA-MB-231. Description: Induction of apoptosis in human MDA-MB-231 cells assessed as early apoptosis cells level at 8 uM after 24 hrs by Annexin V-FITC/propidium iodide staining-based flow cytometric analysis relative to control. The format is functional.

Structures are written as SMILES. The source made the active and inactive calls. The calls are words filed in the database; no cut-off is given here.

Sequence of Lysine-specific demethylase 5A (Homo sapiens) (P29375 whole entry): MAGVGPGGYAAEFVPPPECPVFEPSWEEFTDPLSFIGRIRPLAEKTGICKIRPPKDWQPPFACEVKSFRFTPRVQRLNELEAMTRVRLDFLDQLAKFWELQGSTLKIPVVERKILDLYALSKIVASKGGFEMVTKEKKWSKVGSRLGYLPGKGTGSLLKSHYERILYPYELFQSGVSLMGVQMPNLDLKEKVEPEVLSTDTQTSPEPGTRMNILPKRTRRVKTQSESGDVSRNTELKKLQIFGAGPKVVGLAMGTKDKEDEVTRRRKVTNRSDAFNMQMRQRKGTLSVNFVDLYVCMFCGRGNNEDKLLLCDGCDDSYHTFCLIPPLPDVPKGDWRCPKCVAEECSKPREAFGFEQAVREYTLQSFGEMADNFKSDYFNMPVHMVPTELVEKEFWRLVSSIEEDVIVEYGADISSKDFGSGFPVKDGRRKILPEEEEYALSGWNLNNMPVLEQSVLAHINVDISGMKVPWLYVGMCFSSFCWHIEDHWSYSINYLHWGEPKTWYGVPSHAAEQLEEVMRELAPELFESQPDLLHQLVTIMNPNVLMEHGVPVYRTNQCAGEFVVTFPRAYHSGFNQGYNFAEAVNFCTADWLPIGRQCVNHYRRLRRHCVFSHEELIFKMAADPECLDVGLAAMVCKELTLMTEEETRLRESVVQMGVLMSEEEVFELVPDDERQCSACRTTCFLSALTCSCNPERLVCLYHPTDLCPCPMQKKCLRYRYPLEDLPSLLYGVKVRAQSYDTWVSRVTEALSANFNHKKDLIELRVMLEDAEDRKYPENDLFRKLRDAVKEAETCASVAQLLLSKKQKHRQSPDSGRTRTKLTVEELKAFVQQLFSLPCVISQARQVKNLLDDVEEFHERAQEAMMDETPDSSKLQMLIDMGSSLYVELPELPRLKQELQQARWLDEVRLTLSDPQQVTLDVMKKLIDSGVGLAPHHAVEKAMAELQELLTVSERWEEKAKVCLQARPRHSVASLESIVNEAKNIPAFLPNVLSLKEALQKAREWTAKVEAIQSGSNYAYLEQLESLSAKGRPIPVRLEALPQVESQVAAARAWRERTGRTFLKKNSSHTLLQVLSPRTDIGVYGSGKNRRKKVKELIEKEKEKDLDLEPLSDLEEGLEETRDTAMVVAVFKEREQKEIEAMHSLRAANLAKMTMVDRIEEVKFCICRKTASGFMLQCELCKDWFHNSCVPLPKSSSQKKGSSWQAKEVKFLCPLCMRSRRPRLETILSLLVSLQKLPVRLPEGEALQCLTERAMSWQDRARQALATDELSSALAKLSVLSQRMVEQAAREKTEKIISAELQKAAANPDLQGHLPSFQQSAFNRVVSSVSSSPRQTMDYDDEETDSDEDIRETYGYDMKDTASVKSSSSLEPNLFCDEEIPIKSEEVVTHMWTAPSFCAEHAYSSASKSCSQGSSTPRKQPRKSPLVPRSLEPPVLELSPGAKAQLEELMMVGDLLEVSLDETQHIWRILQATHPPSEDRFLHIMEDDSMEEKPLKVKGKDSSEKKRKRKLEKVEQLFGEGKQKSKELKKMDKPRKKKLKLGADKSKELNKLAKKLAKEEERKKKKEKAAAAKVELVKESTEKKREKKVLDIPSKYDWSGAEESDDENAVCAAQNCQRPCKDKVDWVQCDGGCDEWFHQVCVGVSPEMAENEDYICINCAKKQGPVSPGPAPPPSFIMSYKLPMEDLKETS

As for `COc1ccc([C@@H]2CC(=O)c3c(O)cc(O[C@@H]4O[C@H](CO)[C@@H](O)[C@H](O)[C@H]4O)cc3O2)cc1O`, in test [1], half-maximal inhibition (IC50) required 4.74 µM.

In [2], `O=C(O)[C@H]1O[C@@H](Oc2cc3oc(-c4ccccc4)cc(=O)c3c(O)c2O)[C@H](O)[C@@H](O)[C@@H]1O` [BAICALIN] came in with an IC50 of 3.55 µM. That is a single-digit micromolar value.

As to `COc1ccc(-c2oc3c(CC=C(C)C)c(O)cc(O)c3c(=O)c2O)cc1` [ICARITIN], the half-maximal inhibitory concentration (IC50) in test [1] amounted to 64.5 µM.

As for `O=c1c(O[C@@H]2O[C@H](CO)[C@@H](O)[C@H](O)[C@H]2O)c(-c2ccc(O)c(O)c2)oc2cc(O)cc(O)c12` [ISOQUERCETIN], the result in the test with MDA-MB-231 [3], with MDA-MB-231 [4], in the test on MDA-MB-231 [7], with MDA-MB-231 [10], with MDA-MB-231 [13] and with MDA-MB-231 [14] was Active. The outcome in the test with MDA-MB-231 [15], with MDA-MB-231 [16], in the test on MDA-MB-231 [17], in the test with MDA-MB-231 [19], in the test on MDA-MB-231 [20] and with MDA-MB-231 [22] was Active. Also, the outcome with MDA-MB-231 [24] and with MDA-MB-231 [30] was Active. The Activity was found to be 3.5% in the test with MDA-MB-231 [5]; 10.7% in the test on MDA-MB-231 [8]; 1.5% in the test with MDA-MB-231 [23]; 38.9% in the test with MDA-MB-231 [25]; 56.1% in the test with MDA-MB-231 [26]; 82.6% with MDA-MB-231 [28]. For the same molecule, the Activity with MDA-MB-231 [29] is 2.6%; with MDA-MB-231 [31], 1%. Moreover, the inhibition result (in test [6]; in test [11]; with MDA-MB-231 [12]; in [18]) was “Active” each time. Moreover, the inhibition entry in test [9] is “inactive”. Besides, the IC50 in [1] is 0.95 µM. Also, affinity in test [21] was put at a Ki of 1000 nM. Further, in the test with MDA-MB-231 [27], the outcome was inactive.

For the molecule `COc1ccc([C@@H]2CC(=O)c3c(O)cc(O)cc3O2)cc1O` [HESPERETIN], half-maximal inhibition in test [1] (IC50) was put at 78.8 µM.

For the molecule `COc1ccc(-c2oc3c(CC=C(C)C)c(O)cc(O)c3c(=O)c2O[C@@H]2O[C@@H](C)[C@H](O)[C@@H](O)[C@H]2O)cc1`, the concentration for half-maximal inhibition (IC50) in test [1] stood at 16.7 µM.

In [2], `COc1c(O[C@@H]2O[C@H](C(=O)O)[C@@H](O)[C@H](O)[C@H]2O)cc(O)c2c(=O)cc(-c3ccccc3)oc12` gave an IC50 of 2.98 µM. That is a single-digit micromolar value.

Molecule `O=c1c(O)c(-c2ccc(O)c(O)c2)oc2cc(O)cc(O)c12` [QUERCETIN] yielded a half-maximal inhibitory concentration (IC50) in test [1] of 1.26 µM.

Consider `C[C@@H]1O[C@@H](OC[C@H]2O[C@@H](Oc3c(-c4ccc(O)c(O)c4)oc4cc(O)cc(O)c4c3=O)[C@H](O)[C@@H](O)[C@@H]2O)[C@H](O)[C@H](O)[C@H]1O` [RUTIN], for which the IC50 in [1] was 2.16 µM. Compared with the last molecule, the IC50 is about 1.7-fold higher.

The molecule `COc1ccc([C@@H]2CC(=O)c3c(O)cc(O[C@@H]4O[C@H](CO[C@@H]5O[C@@H](C)[C@H](O)[C@@H](O)[C@H]5O)[C@@H](O)[C@H](O)[C@H]4O)cc3O2)cc1O` [HESPERIDIN] registered a half-inhibitory concentration (IC50) in test [1] of 19.2 µM.

`O=c1cc(-c2ccccc2)oc2cc(O)c(O)c(O)c12` [BAICALEIN] displayed a concentration for half-maximal inhibition (IC50) in test [2] of 12.5 µM.

With `COc1ccc(-c2cc(=O)c3c(O)cc(O[C@@H]4O[C@H](CO)[C@@H](O)[C@H](O)[C@H]4O)cc3o2)cc1O`, in test [1], 21.8 µM corresponded to half-maximal inhibition (IC50).

Broadly, the IC50 is the concentration needed to halve the response being measured. What is called Ki is a dissociation constant, usually derived from enzyme kinetics or from competition with a known ligand.

(Values after ChEMBL document CHEMBL4308904 (Bioorg Med Chem, 2019).)
